Experimental data from US20220257774A1, “AROMATIC AMINE AR AHD BET TARGETING PROTEIN DEGRADATION CHIMERA COMPOUND AND USE” (HINOVA PHARMACEUTICALS INC., priority 2019, published 2022).
Read-outs that look alike come from different tables or passages of the source. One block for each compound: values may come before it.

Legend:
22RV1 cells = assay: Inhibition of the proliferation of drug-resistant prostate cancer cell 22RV1 (CCK-8); format: cell-based; details: 22RV1 cells (enzalutamide-resistant), same method
How it was run: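 22RV1 cells, 1000/well in RPMI1640 with 10% FBS, treated in duplicate with 9-point 3-fold dilutions from 10 μM (0.1% DMSO final). After 6 days at 37 °C, CCK-8 added for 1 h and OD450 read. IC50 from dose-response inhibition fit.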

LNCaP/AR cells = assay: Inhibition of the proliferation of LNCap/AR cells (CCK-8); format: cell-based; details: read-out: LNCap/AR IC50
How it was run: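 Proliferation was read by CCK-8 (OD 450 nm, 1 h) after six days of compound exposure. Cells were seeded at 1000 per well overnight, then dosed in duplicate over nine 3-fold steps with a top final concentration of 10 μM in 0.1% DMSO; IC50 was fitted from inhibition curves.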

[1] = 144 h, LNCaP/AR cells, 6 days culture, CCK-8
[2] = LNCaP/AR cells, 6 days culture, CCK-8

SMILES: Cc1ccc(-c2c(C)noc2C)cc1N(CCCCNc1cc2c(cc1F)CN(C1CCC(=O)NC1=O)C2=O)c1ccc(C#N)c(Cl)c1 (stereo not shown) [Compound 166, 2-Chloro-4-((5-(3,5-dimethylisoxazol-4-yl)-2-methylphenyl)(4-((2-(2,6-dioxopiperidin-3)-6-fluoro-3-isoindolinone-5-yl)amino)butyl)amino)benzonitrile]
- IC50 (22RV1 cells; Homo sapiens): < 0.1 µM
- IC50 (LNCaP/AR cells; LNCaP/AR, 144 h): 0.101 to 0.5 µM

SMILES: Cc1ccc(-c2c(C)noc2C)cc1N(CCCCNc1cc2c(cc1F)C(=O)N(C1CCC(=O)NC1=O)C2)c1ccc(C#N)c(Cl)c1 (stereo not shown) [Compound 167, 2-Chloro-4-((5-(3,5-dimethylisoxazol-4-yl)-2-methylphenyl)(4-((2-(2,6-dioxopiperidin-3)-6-fluoro-1-isoindolinone-5-yl)amino)butyl)amino)benzonitrile]
- IC50 (22RV1 cells; Homo sapiens): > 2 µM
- IC50 (LNCaP/AR cells; LNCaP/AR, 144 h): 0.501 to 2 µM

SMILES: Cc1ccc(-c2c(C)noc2C)cc1N(c1ccc(C2(C#N)CC2)cc1)C1CC2(C1)CN(c1cc3c(cc1F)C(=O)N(C1CCC(=O)NC1=O)C3=O)C2 (stereo not shown) [Compound 170]
- IC50 (22RV1 cells; Homo sapiens): > 2 µM
- IC50 (LNCaP/AR cells; [1]): > 2 µM

SMILES: Cc1ccc(-c2c(C)noc2C)cc1N(CCCNc1cc2c(cc1F)C(=O)N(C1CCC(=O)NC1=O)C2=O)c1ccc(C2(C#N)CC2)cc1 (stereo not shown) [Compound 171, 1-(4-((5-(3,5-Dimethylisoxazol-4-yl)-2-methylphenyl)(3-((2-(2,6-dioxopiperidin-3-yl)-6-fluoro-1,3-dioxoidindolin-5-yl)amino)propyl)amino)phenyl)cyclopropane-1-nitrile]
- IC50 (22RV1 cells): > 2 µM
- IC50 (LNCaP/AR cells; [2]): > 2 µM

SMILES: Cc1ccc(-c2c(C)noc2C)cc1N(CC(C)OC1CN(c2cc3c(cc2F)C(=O)N(C2CCC(=O)NC2=O)C3=O)C1)c1ccc(C2(C#N)CC2)cc1 (stereo not shown) [Compound 173, 1-(4-((5-(3,5-dimethylisoxazol-4-yl)-2-methylphenyl)(2-((1-(2-(2,6-dioxopiperidin-3-yl)-6-fluoro-1,3-dioxoisoindolin-5-yl)azacyclobutane-3-yl)oxy)propyl)amino)phenyl)cyclopropane-1-nitrile]
- IC50 (22RV1 cells; Homo sapiens): 0.101 to 0.5 µM
- IC50 (LNCaP/AR cells; [1]): 0.501 to 2 µM

SMILES: Cc1ccc(-c2c(C)noc2C)cc1N(CCCNc1cc2c(cc1F)C(=O)N(C1CCC(=O)NC1=O)C2)c1ccc(C2(C#N)CC2)cc1 (stereo not shown) [Compound 176, 1-(4-((5-(3,5-dimethylisoxazol-4-yl)-2-methylphenyl)(3-((2-(2,6-dioxopiperidin-3-yl)-6-fluoro-1-oxoisoindolin-5-yl)amino)propyl)amino)phenyl)cyclopropane-1-nitrile]
- IC50 (22RV1 cells; Homo sapiens): > 2 µM
- IC50 (LNCaP/AR cells; [1]): < 0.1 µM

SMILES: Cc1ccc(-c2c(C)noc2C)cc1N(C[C@H]1C[C@@H]1CNc1cc2c(cc1F)C(=O)N(C1CCC(=O)NC1=O)C2=O)c1ccc(C2(C#N)CC2)cc1 (stereo partly shown) [Compound 181]
- IC50 (22RV1 cells; Homo sapiens): 0.101 to 0.5 µM
- IC50 (LNCaP/AR cells; [1]): > 2 µM

SMILES: Cc1ccc(-c2c(C)noc2C)cc1N(C[C@H]1C[C@@H]1CNc1ccc2c(c1)C(=O)N(C1CCC(=O)NC1=O)C2=O)c1ccc(C2(C#N)CC2)cc1 (stereo partly shown) [Compound 182]
- IC50 (22RV1 cells; Homo sapiens): 0.101 to 0.5 µM
- IC50 (LNCaP/AR cells; [1]): > 2 µM

SMILES: Cc1ccc(-c2c(C)noc2C)cc1N(C[C@H]1C[C@@H]1CNc1cc2c(cc1F)C(=O)N(C1CCC(=O)NC1=O)C2)c1ccc(C2(C#N)CC2)cc1 (stereo partly shown) [Compound 185]
- IC50 (22RV1 cells; Homo sapiens): > 2 µM
- IC50 (LNCaP/AR cells; [1]): > 2 µM

SMILES: Cc1ccc(-c2c(C)noc2C)cc1N(CCC(C)CCNc1cc2c(cc1F)CN(C1CCC(=O)NC1=O)C2=O)c1ccc(C2(C#N)CC2)cc1 (stereo not shown) [Compound 190, 1-(4-((5-(3,5-dimethylisoxazol-4-yl)-2-methylphenyl)(5-((2-(2,6-dioxopiperidin-3-yl)-6-fluoro-3-oxoisoindolin-5-yl)amino)-3-methylpentanyl)amino)phenyl)cyclopropane-1-carbonitrile]
- IC50 (22RV1 cells; Homo sapiens): > 2 µM
- IC50 (LNCaP/AR cells; [1]): > 2 µM

SMILES: Cc1ccc(-c2c(C)noc2C)cc1N(CCC(C)CCNc1cc2c(cc1F)C(=O)N(C1CCC(=O)NC1=O)C2)c1ccc(C2(C#N)CC2)cc1 (stereo not shown) [Compound 191, 1-(4-((5-(3,5-dimethylisoxazol-4-yl)-2-methylphenyl)(5-((2-(2,6-dioxopiperidin-3-yl)-6-fluoro-1-oxoisoindolin-5-yl)amino)-3-methylpentanyl)amino)phenyl)cyclopropane-1-carbonitrile]
- IC50 (22RV1 cells; Homo sapiens): 0.501 to 2 µM
- IC50 (LNCaP/AR cells; [1]): > 2 µM

SMILES: Cc1ccc(-c2c(C)noc2C)cc1N(CCC(C)CCNc1ccc2c(c1)C(=O)N(C1CCC(=O)NC1=O)C2=O)c1ccc(C2(C#N)CC2)cc1 (stereo not shown) [Compound 192, 1-(4-((5-(3,5-dimethylisoxazol-4-yl)-2-methylphenyl)(5-((2-(2,6-dioxopiperidin-3-yl)-1,3-dioxoisoindolin-5-yl)amino)-3-methylpentanyl)amino)phenyl)cyclopropane-1-carbonitrile]
- IC50 (22RV1 cells; Homo sapiens): < 0.1 µM
- IC50 (LNCaP/AR cells; [1]): 0.501 to 2 µM

The next lines start with the values.

- IC50 (22RV1 cells; Homo sapiens): > 2 µM
- IC50 (LNCaP/AR cells; [1]): 0.501 to 2 µM
SMILES: Cc1ccc(-c2c(C)noc2C)cc1N(CCCNc1cc2c(cc1F)CN(C1CCC(=O)NC1=O)C2=O)c1ccc(C2(C#N)CC2)cc1 (stereo not shown) [Compound 175, 1-(4-((5-(3,5-dimethylisoxazol-4-yl)-2-methylphenyl)(3-((2-(2,6-dioxopiperidin-3-yl)-6-fluoro-3-oxoisoindolin-5-yl)amino)propyl)amino)phenyl)cyclopropane-1-nitrile]

- IC50 (22RV1 cells): > 2 µM
- IC50 (LNCaP/AR cells; [2]): < 0.1 µM
SMILES: Cc1ccc(-c2c(C)noc2C)cc1N(CC(C)OC1CN(c2cc3c(cc2F)CN(C2CCC(=O)NC2=O)C3=O)C1)c1ccc(C2(C#N)CC2)cc1 (stereo not shown) [Compound 177]

- IC50 (22RV1 cells; Homo sapiens): > 2 µM
- IC50 (LNCaP/AR cells; [1]): > 2 µM
SMILES: Cc1ccc(-c2c(C)noc2C)cc1N(CC(C)OC1CN(c2ccc3c(c2)C(=O)N(C2CCC(=O)NC2=O)C3)C1)c1ccc(C2(C#N)CC2)cc1 (stereo not shown) [Compound 179, 1-(4-((5-(3,5-Dimethylisoxazol-4-yl)-2-methylphenyl)(2-((1-(2-(2,6-dioxopiperidin-3-yl)-3-oxoisoindolin-5-yl)azacyclobutane-3-yl)oxy)propyl)amino)phenyl)cyclopropane-1-nitrile]

- IC50 (22RV1 cells; Homo sapiens): > 2 µM
- IC50 (LNCaP/AR cells; [1]): > 2 µM
SMILES: Cc1ccc(-c2c(C)noc2C)cc1N(C[C@H]1C[C@@H]1CNc1cc2c(cc1F)CN(C1CCC(=O)NC1=O)C2=O)c1ccc(C2(C#N)CC2)cc1 (stereo partly shown) [Compound 184]

- IC50 (22RV1 cells; Homo sapiens): > 2 µM
- IC50 (LNCaP/AR cells; [1]): > 2 µM
SMILES: Cc1ccc(-c2c(C)noc2C)cc1N(C[C@H]1C[C@@H]1CNc1ccc2c(c1)C(=O)N(C1CCC(=O)NC1=O)C2)c1ccc(C2(C#N)CC2)cc1 (stereo partly shown) [Compound 186]

- IC50 (22RV1 cells; Homo sapiens): 0.501 to 2 µM
- IC50 (LNCaP/AR cells; [1]): > 2 µM
SMILES: Cc1ccc(-c2c(C)noc2C)cc1N(C[C@H]1C[C@@H]1CNc1ccc2c(c1)CN(C1CCC(=O)NC1=O)C2=O)c1ccc(C2(C#N)CC2)cc1 (stereo partly shown) [Compound 187]

- IC50 (22RV1 cells; Homo sapiens): 0.101 to 0.5 µM
- IC50 (LNCaP/AR cells; [1]): 0.501 to 2 µM
SMILES: Cc1ccc(-c2c(C)noc2C)cc1N(CC(C)OC1CCN(c2cc3c(cc2F)C(=O)N(C2CCC(=O)NC2=O)C3=O)CC1)c1ccc(C2(C#N)CC2)cc1 (stereo not shown) [Compound 188]

- IC50 (22RV1 cells; Homo sapiens): 0.501 to 2 µM
- IC50 (LNCaP/AR cells; [1]): > 2 µM
SMILES: Cc1ccc(-c2c(C)noc2C)cc1N(CCC(C)CCNc1cc2c(cc1F)C(=O)N(C1CCC(=O)NC1=O)C2=O)c1ccc(C2(C#N)CC2)cc1 (stereo not shown) [Compound 189, 1-(4-((5-(3,5-dimethylisoxazol-4-yl)-2-methylphenyl)(5-((2-(2,6-dioxopiperidin-3-yl)-6-fluoro-1,3-dioxoisoindolin-5-yl)amino)-3-methylpentanyl)amino)phenyl)cyclopropane-1-carbonitrile]
